Test results taken from patent US6407042B1 (Monsanto Technology LLC, priority 1996, dated 2002).

Experiments:
[1] = test system: Prickly sida (Sida spinosa, SIDSP); test: Greenhouse test of herbicidal effectiveness (percent inhibition) on prickly sida; assay type: in vivo; settings: for % Inhibition SIDSP: evaluation 10 days after application
Text: (§1) The herbicidal effectiveness data set forth herein report “inhibition” as a percentage following a standard procedure in the art which reflects a visual assessment of plant mortality and growth reduction by comparison with untreated plants, made by technicians specially trained to make and record such observations. In all cases, a single technician makes all assessments of percent inhibition within any one experiment or trial. Such measurements are relied upon and regularly reported by Monsanto Company in the course of its herbicide business.
(§2) The following procedure was used for testing compositions of the Examples to determine herbicidal effectiveness, except where otherwise indicated.
(§3) Seeds of the plant species indicated were planted in 85 mm square pots in a soil mix which was previously steam sterilized and prefertilized with a 14-14-14 NPK slow release fertilizer at a rate of 3.6 kg/m3. The pots were placed in a greenhouse with subirrigation. About one week after emergence, seedlings were thinned as needed, including removal of any unhealthy or abnormal plants. to create a uniform series of test pots.
(§4) The plants were maintained for the duration of the test in the greenhouse where they received a minimum of 14 hours of light per day. If natural light was insufficient to achieve the daily requirement, artificial light with an intensity of approximately 475 microeinsteins was used to make up the difference. Exposure temperatures were not precisely controlled but averaged about 27° C. during the day and about 18° C. during the night. Plants were sub-irrigated throughout the test to ensure adequate soil moisture levels.
(§5) A set of pots was left untreated as a reference against which effects of the treatments could later be evaluated.
(§6) Application of glyphosate compositions was made by spraying with a track sprayer fitted with a 9501E nozzle calibrated to deliver a spray volume of 93 liters per hectare (l/ha) at a pressure of 166 kilopascals (kPa). After treatment, pots were returned to the greenhouse until ready for evaluation.
(§7) Treatments were made using dilute aqueous compositions. These could be prepared as spray compositions directly from their ingredients, or by dilution with water of preformulated concentrate compositions.
(§8) For evaluation of herbicidal effectiveness, all plants in the test were examined by a single practiced technician, who recorded percent inhibition, a visual measurement of the effectiveness of each treatment by comparison with untreated plants.

[2] = test system: Velvetleaf (Abutilon theophrasti, ABUTH); test: Greenhouse test of herbicidal effectiveness (percent inhibition) on velvetleaf; assay type: in vivo
Text: as §1, §2, §3, §4, §5, §6, §7, §8

[3] = test system: Japanese millet (Echinochloa crus-galli, ECHCF); test: Greenhouse test of herbicidal effectiveness (percent inhibition) on Japanese millet; assay type: in vivo
Text: as §1, §2, §3, §4, §5, §6, §7, §8

[4] = test system: Hemp sesbania (Sesbania exaltata, SEBEX); test: Greenhouse test of herbicidal effectiveness (percent inhibition) on hemp sesbania; assay type: in vivo; settings: Example 18; 21 days after application
Text: as §2, §3
(§9) The plants were maintained for the duration of the test in the greenhouse where they received a minimum of 14 hours of light per day. […]
as §5
as §6, with “evaluation. […]” for “evaluation.”
as §8

[5] = test system: Common lambsquarter (Chenopodium album, CHEAL); test: Greenhouse test of herbicidal effectiveness (percent inhibition) on common lambsquarter; assay type: in vivo; settings: Example 20; 18 days after application
Text: as §2, §3, §9, §5
as §6, with “evaluation. […]” for “evaluation.”
as §8

ABUTH and ECHCF = test: Greenhouse test, herbicidal effectiveness overall on both species of the Example; assay type: in vivo, Abutilon theophrasti, Echinochloa crus-galli; settings: post-emergence foliar spray 93 l/ha, comparison as worded in the discussion of the Example
Method: The following procedure was used for testing compositions of the Examples to determine herbicidal effectiveness, except where otherwise indicated. […] The pots were placed in a greenhouse with subirrigation. About one week after emergence, seedlings were thinned as needed, including removal of any unhealthy or abnormal plants. to create a uniform series of test pots. The plants were maintained for the duration of the test in the greenhouse where they received a minimum of 14 hours of light per day. […] Exposure temperatures were not precisely controlled but averaged about 27° C. during the day and about 18° C. during the night. Plants were sub-irrigated throughout the test to ensure adequate soil moisture levels. Pots were assigned to different treatments in a fully randomized experimental design with 3 replications. A set of pots was left untreated as a reference against which effects of the treatments could later be evaluated. […] After treatment, pots were returned to the greenhouse until ready for evaluation. Treatments were made using dilute aqueous compositions. […] For evaluation of herbicidal effectiveness, all plants in the test were examined by a single practiced technician, who recorded percent inhibition, a visual measurement of the effectiveness of each treatment by comparison with untreated plants.

[6] = acifluorfen rate 25 g a.i./ha, evaluation 10 days after application
[7] = acifluorfen rate 50 g a.i./ha, evaluation 10 days after application
[8] = acifluorfen rate 100 g a.i./ha, evaluation 10 days after application
[9] = acifluorfen rate 200 g a.i./ha, evaluation 10 days after application
[10] = dicamba rate 25 g a.i./ha, evaluation 17 days after application
[11] = dicamba rate 50 g a.i./ha, evaluation 17 days after application
[12] = dicamba rate 100 g a.i./ha, evaluation 17 days after application
[13] = dicamba rate 200 g a.i./ha, evaluation 17 days after application

O=C(O)c1cc(Oc2ccc(C(F)(F)F)cc2Cl)ccc1[N+](=O)[O-] [Acifluorfen (technical)]
% Inhibition SIDSP ([1]; acifluorfen rate 25 g a.i./ha): 15% | % Inhibition SIDSP ([1]; acifluorfen rate 50 g a.i./ha): 17% | % Inhibition SIDSP ([1]; acifluorfen rate 100 g a.i./ha): 35% | % Inhibition SIDSP ([1]; acifluorfen rate 200 g a.i./ha): 40% | % Inhibition ABUTH [2, 6]: 20% | % Inhibition ABUTH [2, 7]: 32% | % Inhibition ABUTH [2, 8]: 52% | % Inhibition ABUTH [2, 9]: 62% | % Inhibition ECHCF [3, 6]: 2% | % Inhibition ECHCF [3, 7]: 7% | % Inhibition ECHCF [3, 8]: 18% | % Inhibition ECHCF [3, 9]: 35%

COC(=O)NS(=O)(=O)c1ccc(N)cc1 [Asulam (technical)]
% Inhibition ECHCF ([3]; asulam rate 200 g a.i./ha, evaluation 14 days after application): 12%

COc1c(Cl)ccc(Cl)c1C(=O)O [Dicamba (technical)]
% Inhibition ABUTH [2, 10]: 47% | % Inhibition ABUTH [2, 11]: 63% | % Inhibition ABUTH [2, 12]: 82% | % Inhibition ABUTH [2, 13]: 93% | % Inhibition ECHCF [3, 10]: 0% | % Inhibition ECHCF [3, 11]: 0% | % Inhibition ECHCF [3, 12]: 0% | % Inhibition ECHCF [3, 13]: 5%

C[N+](C)(C)CCCNS(=O)(=O)C(F)(F)C(F)(F)C(F)(F)C(F)(F)C(F)(F)C(F)(F)C(F)(F)C(F)(F)F.[I-] [Fluorad FC-135, 3-(((heptadecafluorooctyl)sulfonyl)amino)-N,N,N-trimethyl-1-propaminium iodide]
concentration of Fluorad FC-135 added in tank-mix to Formulation B to bring its herbicidal performance up to that of Formulation C ([1]; Example 21, SIDSP, evaluation 20 days after application): ~0.1% | concentration of Fluorad FC-135 added in tank-mix to Formulation B to bring its herbicidal performance up to that of Formulation C ([2]; Example 21, ABUTH, evaluation 20 days after application): ~0.02% | optimum adjuvant concentration ([2]; Example 25, tank-mix adjuvant for glyphosate as Formulation B, ABUTH, 21 days after application): 0.2% | concentration of Fluorad FC-135 added in tank-mix to Formulation B to bring its herbicidal performance up to that of Formulation C ([3]; Example 21, ECHCF, evaluation 20 days after application): approximately 0.25% | optimum adjuvant concentration ([3]; Example 25, tank-mix adjuvant for glyphosate as Formulation B, ECHCF, 21 days after application): 0.2%

C[n+]1ccc(-c2cc[n+](C)cc2)cc1 [Paraquat dichloride]
inhibition at 25 g/ha ([1]; Sida spinosa, 288 h, Table 82, paraquat rate 25 g a.i./ha, evaluation 12 days after application): 55% | inhibition at 50 g/ha ([1]; Sida spinosa, 288 h, Table 82, paraquat rate 50 g a.i./ha, evaluation 12 days after application): 60% | inhibition at 100 g/ha ([1]; Sida spinosa, 288 h, Table 82, paraquat rate 100 g a.i./ha, evaluation 12 days after application): 69% | inhibition at 200 g/ha ([1]; Sida spinosa, 288 h, Table 82, paraquat rate 200 g a.i./ha, evaluation 12 days after application): 99% | inhibition at 25 g/ha ([2]; Abutilon theophrasti, 288 h, Table 82, paraquat rate 25 g a.i./ha, evaluation 12 days after application): 50% | inhibition at 50 g/ha ([2]; Abutilon theophrasti, 288 h, Table 82, paraquat rate 50 g a.i./ha, evaluation 12 days after application): 57% | inhibition at 100 g/ha ([2]; Abutilon theophrasti, 288 h, Table 82, paraquat rate 100 g a.i./ha, evaluation 12 days after application): 73% | inhibition at 200 g/ha ([2]; Abutilon theophrasti, 288 h, Table 82, paraquat rate 200 g a.i./ha, evaluation 12 days after application): 85% | inhibition at 25 g/ha ([3]; Echinochloa crus-galli, 288 h, Table 82, paraquat rate 25 g a.i./ha, evaluation 12 days after application): 83% | inhibition at 50 g/ha ([3]; Echinochloa crus-galli, 288 h, Table 82, paraquat rate 50 g a.i./ha, evaluation 12 days after application): 78% | inhibition at 100 g/ha ([3]; Echinochloa crus-galli, 288 h, Table 82, paraquat rate 100 g a.i./ha, evaluation 12 days after application): 84% | inhibition at 200 g/ha ([3]; Echinochloa crus-galli, 288 h, Table 82, paraquat rate 200 g a.i./ha, evaluation 12 days after application): 95%

O=C(O)CNCP(=O)(O)O [glyphosate, N-phosphonomethylglycine]
herbicidal activity on SEBEX, result in words [4]: extremely weak | herbicidal activity on CHEAL, result in words [5]: very weak

Steareth-20
herbicidal effectiveness overall (ABUTH and ECHCF), result in words (ABUTH and ECHCF): more effective additives for Formulation B than steareth-10

ceteareth-30
herbicidal effectiveness overall (ABUTH and ECHCF), result in words (ABUTH and ECHCF): more effective additives for Formulation B than steareth-10
